The values that follow come from US20130338190A1, “PHARMACEUTICALLY ACCEPTABLE SALT OF (E)-N-[4-[[3-CHLORO-4-(2-PYRIDYLMETHOXY)PHENYL]AMINO]-3-CYANO-7-ETHOXY-6-QUINOLYL]-3-[(2R)-1-METHYLPYRROLIDIN-2-YL]PROP-2-ENAMIDE, PREPARATION METHOD THEREOF, AND MEDICAL USE THEREOF” (priority 2011, published 2013).

Structures can show the parent of a compound that is named as a salt. Where two headings read alike, the source gives them in different places.

Data set [1] deals with HER-2 kinase (Homo sapiens, UniProt P04626). Put plainly: HER-2 kinase activity assay (time-resolved fluorescence). The data set is classed as biochemical. Particulars: table of the HER-2 kinase activity assay; human-derived recombinant HER-2 kinase, 20 μM ATP, 25° C., 45 minutes; read-out: IC50 (HER-2/SK-BR-3). The method, then: The in vitro HER-2 kinase activity was tested by the following assay.
Chain of HER-2 kinase (P04626 23-1255): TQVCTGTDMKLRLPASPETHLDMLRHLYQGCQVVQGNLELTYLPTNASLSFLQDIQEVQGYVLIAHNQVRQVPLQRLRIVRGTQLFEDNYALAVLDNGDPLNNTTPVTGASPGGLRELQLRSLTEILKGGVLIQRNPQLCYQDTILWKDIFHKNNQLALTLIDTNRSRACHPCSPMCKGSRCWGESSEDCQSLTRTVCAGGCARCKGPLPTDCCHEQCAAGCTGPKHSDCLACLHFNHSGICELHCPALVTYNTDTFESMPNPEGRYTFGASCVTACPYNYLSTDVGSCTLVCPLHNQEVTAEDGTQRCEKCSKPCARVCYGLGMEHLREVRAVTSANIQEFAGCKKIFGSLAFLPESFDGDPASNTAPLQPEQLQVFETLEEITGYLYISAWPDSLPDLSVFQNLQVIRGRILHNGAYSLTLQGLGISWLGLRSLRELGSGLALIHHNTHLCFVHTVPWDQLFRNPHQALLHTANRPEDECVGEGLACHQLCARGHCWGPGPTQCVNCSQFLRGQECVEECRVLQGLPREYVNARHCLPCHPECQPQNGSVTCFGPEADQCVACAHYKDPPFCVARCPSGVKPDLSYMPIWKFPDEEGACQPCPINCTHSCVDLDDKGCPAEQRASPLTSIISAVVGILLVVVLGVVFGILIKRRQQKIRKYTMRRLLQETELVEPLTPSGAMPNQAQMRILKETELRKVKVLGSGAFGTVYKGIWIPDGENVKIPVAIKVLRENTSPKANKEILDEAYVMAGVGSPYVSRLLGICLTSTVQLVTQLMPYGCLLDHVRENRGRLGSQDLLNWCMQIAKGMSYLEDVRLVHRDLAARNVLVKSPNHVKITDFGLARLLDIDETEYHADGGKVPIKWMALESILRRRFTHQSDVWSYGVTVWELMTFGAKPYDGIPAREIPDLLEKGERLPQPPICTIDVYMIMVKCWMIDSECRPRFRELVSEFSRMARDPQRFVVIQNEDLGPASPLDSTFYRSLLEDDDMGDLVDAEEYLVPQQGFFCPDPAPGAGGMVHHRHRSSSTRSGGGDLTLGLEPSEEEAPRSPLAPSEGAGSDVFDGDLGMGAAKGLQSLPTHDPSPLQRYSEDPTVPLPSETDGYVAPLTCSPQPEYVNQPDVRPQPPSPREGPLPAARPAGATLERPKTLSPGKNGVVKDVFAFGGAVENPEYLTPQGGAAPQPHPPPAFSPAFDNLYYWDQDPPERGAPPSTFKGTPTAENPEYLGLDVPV
The following assay was used to determine the activity of the compounds of the present invention for inhibiting HER-2 kinase. The half maximal inhibitory concentration IC50 (the concentration of the test compound showing 50% inhibition of the enzyme activity) of each compound was determined by incubating several different concentrations of the test compounds with a specific enzyme and substrate. […] The HER-2 kinase activity was determined by using a time-resolved fluorescence method.

Data set [2] has as its system human carcinoma SK-BR-3 cells, which have high expression of HER-2. Kind of data set: HER-2 cell activity assay (SRB, 96 hours). The settings on record: read-out: IC50 (HER-2/SK-BR-3). The class given is cell-based. From the text:
The following in vitro assay was to determine the activity of the compounds of the present invention for inhibiting the proliferation of human carcinoma SK-BR-3 cells, which have high expression of HER-2.
The following in vitro assay was to determine the activity of the test compounds for inhibiting the angiogenesis and proliferation of cancer cells, which have high expression of HER-2. The activity is represented by the IC50 value. The general procedure of the assay was as follows: the cancer cells line SK-BR-3 highly expressing HER-2 was chosen and the cells were seeded in a 96-well cell culture plate at a suitable density. The cells then were incubated in a carbon dioxide incubator until they reached 60% confluence. Then, the cell culture medium was replaced by fresh medium with the test compounds at various concentrations (6 to 7 concentrations). The cells were put back in the incubator and cultured continuously for 96 hours. The activity of the test compounds for inhibiting the cell proliferation was determined by using a Sulforhodamine B (SRB) method. IC50 values of test cells were calculated by the rate of inhibition at various concentrations of the test compounds.

Data set [3] can be described thus: Solubility assay. The data set is classed as physicochemical. How it is done: According to the conventional solubility measurement, the solubility of a compound of formula (I) and salts thereof was determined in three different systems: water, physiological saline and methanol.
Data set [4] is described as follows: Solubility assay. The data set is classed as physicochemical. The settings on record: for solubility: 0.1 M hydrochloric acid, simulated gastric fluid.
Data set [5] deals with human epidermoid carcinoma A431 cells, which have high expression of EGFR. Kind of data set: EGFR cell proliferation inhibition assay (SRB, 72 hours). The class given is cell-based. Particulars: A431 cells, 72 hours, SRB, read-out: IC50 (EGFR/A431). How it is done: The activity is represented by the IC50 value. The general procedures of the assay were as follows: the cancer cells A431 highly expressing EGFR were chosen and seeded in a 96-well cell culture plate at a suitable density (e.g., 5000 cells/mL medium). The cells were then incubated in a carbon dioxide incubator until they reached 85% confluence. Then, the cell culture medium was replaced by fresh medium containing the test compounds with serial dilutions (general 6 to 7 concentrations). The cells were put back in the incubator and cultured continuously for 72 hours. The activity of the test compounds for inhibiting the cell proliferation was determined by using a Sulforhodamine B (SRB) method. IC50 values were calculated by the rate of inhibition at various concentrations of the test compounds.

Data set [6] is described as follows: Pharmacokinetics assay in rats (LC/MS/MS of plasma). The data set is classed as in vivo, Sprague Dawley (SD) rats. The settings on record: both sexes, Sprague-Dawley, rat, plasma, 25 mg/kg; for AUC(0-t): read-out: AUC0-t; for MRT: read-out: MRT; for Cmax: read-out: Cmax; for Vd/F: read-out: Vz/F; for bioavailability: oral absolute bioavailability, 25 mg/kg (calculated by the base part). How it is done: The rats were used as test animals. The compound of formula (I) and other salts thereof were administrated intragastrically, and a maleate salt of the compound of formula (I) was injected into the tail vein to determine the drug concentration in plasma at different time points by an LC/MS/MS method. The pharmacokinetic behavior, characteristics and the oral absolute bioavailability of the present compounds were studied and evaluated in rats. […] 28 healthy adult Sprague Dawley (SD) rats, half male and half female, were purchased from SINO-BRITSH SIPPR/BK LAB. ANIMAL LTD., CO, License number: SCXK (Shanghai) 2008-0016, and divided into 7 groups (4 rats in each group). The intravenous injection group: a suitable amount of compounds was weighed, dissolved in DMSO and diluted with normal saline to the final volume. […] healthy adult SD rats, half male and half female, were divided into 7 groups (4 rats in each group). […] For the intravenous injection group, blood samples (0.2 mL) were taken from orbital sinus before administration and at 2 min, 15 min, 30 min, 1.0 […] and 36.0 h after administration, stored in heparinized tubes and centrifuged for 10 minutes at 3,500 rpm to separate blood plasma. The plasma samples were stored at -20° C. For the intragastrical administration group, blood samples were taken before administration and at 0.5, 1.0, 2.0, 3.0, 4.0, 6.0, 8.0, 12.0, 24.0 and 36.0 hours after administration. The method to treat the samples was the same as with the intravenous injection group. The rats were fed 2 hours after administration.

The mark [7] stands for this setting: physiological saline, saline or isotonic, physiological saline, read-out: Solubility Value, Physiological saline.
Setting [8] is: water, read-out: Solubility Value, Water.

With `CCOc1cc2ncc(C#N)c(Nc3ccc(OCc4ccccn4)c(Cl)c3)c2cc1NC(=O)/C=C/[C@H]1CCCN1C.O=C(O)C[C@H](O)C(=O)O` [Example 3, (E)-N-[4-[[3-chloro-4-(2-pyridylmethoxy)phenyl]amino]-3-cyano-7-ethoxy-6-quinolyl]-3-[(2R)-1-methylpyrrolidin-2-yl]prop-2-enamide L-malate], the IC50 in data set [1] came out at 71 nM; in data set [2] (L-malate) it was 56 nM; in data set [5] (L-malate) it was 29 nM. In addition, the solubility (commonly the concentration that dissolves in the medium under given conditions) in data set [3] (setting [7]) is 0.08 mg/mL; in data set [3] (setting [8]), 17.2 mg/mL; in data set [4], 12.7 mg/mL.

For `CCOc1cc2ncc(C#N)c(Nc3ccc(OCc4ccccn4)c(Cl)c3)c2cc1NC(=O)/C=C/[C@H]1CCCN1C.Cc1ccc(S(=O)(=O)O)cc1` [Example 7, (E)-N-[4-[[3-chloro-4-(2-pyridylmethoxy)phenyl]amino]-3-cyano-7-ethoxy-6-quinolyl]-3-[(2R)-1-methylpyrrolidin-2-yl]prop-2-enamide p-toluenesulfonate], in data set [1], the IC50 was found to be 64 nM. Moreover, in data set [6] (iv, vein (tail vein injection)), the half-life (commonly the time needed for the level to fall by half in the phase considered) was 3.12 ± 0.37 h; the AUC(0-t) was 113000 ± 62100 ng·h/mL; the MRT (in general, a mean duration of stay, worked out from the concentration-time curve) amounted to 4.2 ± 0.99 h. In addition, in data set [6] (po, gavage), the CL/F (usually clearance divided by bioavailability, as obtained after extravascular dosing) is 10.5 mL/min/kg; the half-life was 3.52 ± 0.69 h; the AUC(0-t) was determined as 44300 ± 16000 ng·h/mL; the Cmax – broadly, the peak of the concentration-time curve – amounted to 5160 ± 1640 ng/mL. In data set [6] (po, gavage), the MRT amounted to 7.9 ± 0.74 h and the Vd/F worked out at 3.23 ± 1.65 L/kg. In addition, in data set [6] (po), the bioavailability (usually the share of a dose that reaches the circulation, judged against a reference dose that is usually intravenous) is 39.2%. Further, in data set [2] (p-toluenesulfonate), the IC50 was determined as 45 nM. Moreover, the solubility in data set [3] (setting [7]) is 0.1 mg/mL. For the same compound, in data set [3] (setting [8]), the solubility was found to be 5.39 mg/mL. Further, in data set [4], the concentration in solution (solubility) came to 31.9 mg/mL. Further, in data set [5] (p-toluenesulfonate), the IC50 came out at 38 nM.

For `CCOc1cc2ncc(C#N)c(Nc3ccc(OCc4ccccn4)c(Cl)c3)c2cc1NC(=O)/C=C/[C@H]1CCCN1C.O=C(O)CCC(=O)O` [Example 8, (E)-N-[4-[[3-chloro-4-(2-pyridylmethoxy)phenyl]amino]-3-cyano-7-ethoxy-6-quinolyl]-3-[(2R)-1-methylpyrrolidin-2-yl]prop-2-enamide succinate], the IC50 in data set [1] worked out at 53 nM; in data set [2] (succinate), 78 nM; in data set [5] (succinate), 15 nM. Also, the solubility was 3.32 mg/mL in data set [3] (setting [7]), 22.4 mg/mL in data set [3] (setting [8]) and 32.4 mg/mL in data set [4].

On to `CCOc1cc2ncc(C#N)c(Nc3ccc(OCc4ccccn4)c(Cl)c3)c2cc1NC(=O)/C=C/[C@H]1CCCN1C` [Example 9, (E)-N-[4-[[3-chloro-4-(2-pyridylmethoxy)phenyl]amino]-3-cyano-7-ethoxy-6-quinolyl]-3-[(2R)-1-methylpyrrolidin-2-yl]prop-2-enamide dihydrochloride], for which the IC50 in data set [1] was 46 nM. Further, in data set [6] (iv, vein (tail vein injection)), the half-life is 4.75 ± 0.32 h, the AUC(0-t) was 115000 ± 33100 ng·h/mL and the MRT stood at 5.54 ± 0.58 h. For the same compound, in data set [6] (po, gavage), the CL/F is 6.67 mL/min/kg, the half-life was 3.47 ± 0.18 h, the AUC(0-t) was determined as 66100 ± 17200 ng·h/mL and the Cmax is 5870 ± 1610 ng/mL. For the same compound, in data set [6] (po, gavage), the MRT was 7.96 ± 0.7 h and the Vd/F is 1.99 ± 0.49 L/kg. In addition, the bioavailability in data set [6] (po) is 57.6%. Also, the IC50 in data set [2] (dihydrochloride) was 69 nM. The “Solubility Value, Physiological saline” value in data set [3] (physiological saline, dihydrochloride) is on record as 0.2 mg/mL. For the same compound, the “Solubility Value, Water” value in data set [3] (water, dihydrochloride) is listed as 0.15 mg/mL. For the same compound, in data set [4] (0.1M hydrochloric acid, dihydrochloride), the “Solubility Value, 0.1M Hydrochloric acid” value worked out at 16.59 mg/mL. Further, the IC50 in data set [5] (dihydrochloride) came to 49 nM.
